In US9744177B2, “Treatment of male androgen deficiency symptoms or diseases with sex steroid precursor combined with SERM” (ENDORECHERCHE, INC., priority 2014, dated 2017):
Entries after “also recorded” stand apart in the source; their conditions may differ. Structures can show the parent of a compound that is named as a salt. Where two headings read alike, the source gives them in different places.

Columns and labels:
[1] = system: ovariectomized female rats; experiment: 26-week treatment of ovariectomized female rats: lumbar spine BMD, total fat, cholesterol, ALP (Example 3, experiment 2); format: in vivo, Sprague-Dawley rats; settings: OVX rats, 26 weeks, serum
Description: Ten to twelve week-old female Sprague-Dawley rats (Crl:CD(SD)Br) (Charles River Laboratory, St-Constant, Canada) weighing approximately 220-270 g at start of treatment were used. The animals were acclimatized to the environmental conditions (temperature: 22±3° C.; humidity: 50±20%; 12-h light-12-h dark cycles, lights on at 07:15 h) for at least 1 week before starting the experiments. The animals were housed individually and were allowed free access to tap water and a pelleted certified rodent feed (Lab Diet 5002, Ralston Purina, St-Louis, Mo.). […]
(§1) After 3 months (experiment 1) or 26 weeks (experiment 2) of treatment, individual rats under Isoflurane anesthesia had their whole body skeleton and lumbar spine scanned using dual energy x-ray absorptiometry (DEXA; QDR 4500A, Hologic, Waltham, Mass.) and a Regional High Resolution Scan software. The bone mineral density (BMD) of the lumbar spine (vertebrae L2 to L4) and the total body composition (fat percentage) were determined.
After 3 months (experiment 1) or 26 weeks (experiment 2) of treatment, blood samples were collected at the jugular vein from overnight fasted animals (under Isoflurane anesthesia). […] Serum cholesterol levels and alkaline phospatase activity (ALP) were determined using the Boehringer Mannheim Diagnostic Hitachi 911 Analyzer (Boehringer Mannheim Diagnostic Laboratory Systems).
Data are expressed as means±SEM. […]

[2] = system: estrone-stimulated uterine weight; experiment: Antiestrogenic activity: estrone-stimulated uterine weight in ovariectomized mice; format: in vivo, BALB/c mice; settings: OVX mice + estrone; any dose used (1, 3 or 10 μg)
Description: (§2) Female BALB/c mice (BALB/cAnNCrlBR) weighing 18-20 g were obtained from Charles-River, Inc. (St-Constant, Quebec, Canada) and housed 5 per cage in a temperature (23±1° C.)- and light (12 h light/day, lights on at 7:15)-controlled environment. The mice were fed rodent chow and tap water ad libitum. The animals were ovariectomized (OVX) under Isoflurane anesthesia via bilateral flank incisions and randomly assigned to groups of 10 animals. Ten mice were kept intact as controls.
(§3) In the second experiment (Table 4), TSE 424 was administered orally by gavage once daily at doses of 1, 3, 10 or 30 μg/animal for 9 days, starting 2 days after ovariectomy. In both experiments, to evaluate the antiestrogenic activity, treatment with estrone (E1, 0.06 μg, s.c. injection, twice daily) was started 5 days post-ovariectomy and was administered for a 6 day-period. Compounds were dissolved in ethanol (4% final concentration) and administered in 0.4% methylcellulose. Mice in the intact and OVX control groups received the vehicle alone (4% ETOH-0.4% methylcellulose) during the 9-day period. The animals were killed by exsanguination at the abdominal aorta on the 11th morning following ovariectomy. The uteri and vagina were rapidly dissected, weighed, and kept in 10% buffered formalin for further histologic examination.

ovariectomized mice = experiment: Estrogenic activity: uterine and vaginal weight in ovariectomized mice, compounds alone; format: in vivo, BALB/c mice; settings: OVX mice, no estrone
Description: as §2, §3

[3] = female, Long-Evans, rat, in vivo, po, 20 mg/kg
[4] = system: biochemical parameters of bone metabolism; experiment: Treatment of rats with DHEA and EM-800 alone or in combination: biochemical parameters of bone metabolism, serum lipids; format: in vivo; settings: rat; 9 months; DHEA 10 mg percutaneously, EM-800 75 μg orally, once daily (FIG. 10)
Source text: Data are expressed as the means±SEM. **: p<0.01 experimental versus respective control.
It is thus important to analyze the changes in biochemical parameters of bone metabolism induced by various compounds and treatments in order to gain a better knowledge of their action (Table 2).
It is particularly important to indicate that the combination of DHEA and acolbifene exerted unexpected beneficial effects on important biochemical parameters of bone metabolism. […] Moreover, no effect of DHEA could be detected on daily urinary calcium or phosphorus excretion (Luo, Sourla et al. 1997). EM-800 (prodrug of acolbifene free salt) decreased the urinary hydroxyproline/creatinine ratio by 48% while, similarly to DHEA, no effect of EM 800 (prodrug of acolbifene, free salt) was seen on urinary calcium or phosphorus excretion. EM-800, moreover, had no effect on serum alkaline phosphatase activity, a marker of bone formation while DHEA increased the value of the parameter by about 75% (Luo, Sourla et al. 1997).

ovariectomized rats = experiment: 12-month treatment of ovariectomized rats with DHEA alone or with Flutamide or EM-800: bone histomorphometry, bone markers, serum lipids; format: in vivo, rat; settings: OVX rats
[5] = system: ovariectomized female rats; experiment: 5-week treatment of ovariectomized female rats with SERMs alone or with DHEA: BMD (Example 4); format: in vivo, Sprague-Dawley rats; settings: OVX rats, 5 weeks; SERMs 2.5 mg/kg oral, DHEA 80 mg/kg topical
Description: (§4) Ten to twelve week-old female Sprague-Dawley rats (Crl:CD(SD)Br) (Charles River Laboratory, St-Constant, Canada) weighing approximately 220-270 g at start of treatment were used. The animals were acclimatized to the environmental conditions (temperature: 22±3° C.; humidity: 50±20%; 12-h light-12-h dark cycles, lights on at 07:15 h) for at least 1 week before starting the experiments. The animals were housed individually and were allowed free access to tap water and a pelleted certified rodent feed (Lab Diet 5002, Ralston Purina, St-Louis, Mo.). Experiments were conducted in an animal facility approved by the Canadian Council on Animal Care (CCAC) and the Association for Assessment and Accreditation of Laboratory Animal Care (AAALAC) in accordance with the CCAC Guide for Care and Use of Experimental Animals.
(§5) On Day 1 of the study, the animals of the appropriate groups were bilaterally ovariectomized (OVX) under isoflurane anesthesia. The DHEA was applied topically on the dorsal skin as a solution in 50% ethanol-50% propylene glycol while the tested SERMs were administered as suspension in 0.4% methylcellulose by oral gavage. Treatments were initiated on Day 2 of the study and were performed once daily during 5 weeks.
After 5 weeks of treatment, individual rats under Isoflurane anesthesia had their lumbar spine, femur and tibia scanned using dual energy x-ray absorptiometry (DEXA; QDR 4500A, Hologic, Waltham, Mass.) and a Regional High Resolution Scan software. The bone mineral density (BMD) of the lumbar spine (vertebrae L2 to L4), distal femoral metaphysis (DFM) and proximal tibial metaphysis (PTM) were determined.
Data are expressed as means±SEM. Statistical significance was determined according to the multiple-range test of Duncan-Kramer {Kramer, 1956 #37421.

[6] = 50 mg daily, 6 months, cited from earlier work
[7] = 6 months; cited from earlier work
[8] = system: ovariectomized female rats; experiment: 3-month treatment of ovariectomized female rats: lumbar spine BMD, total fat, cholesterol, ALP (Example 3, experiment 1); format: in vivo, Sprague-Dawley rats; settings: OVX rats, 3 months, serum
Description: as §4
as §5, with “while the other tested compounds” for “while the tested SERMs”, “other tested compounds were administered” for “the tested SERMs were administered”, “daily during 3 months.” for “daily during 5 weeks.”
as §1
After 3 months (experiment 1) or 26 weeks (experiment 2) of treatment, blood samples were collected at the jugular vein from overnight fasted animals (under Isoflurane anesthesia). Samples were processed for serum preparation and frozen at −80° C. until assay. Serum cholesterol levels and alkaline phospatase activity (ALP) were determined using the Boehringer Mannheim Diagnostic Hitachi 911 Analyzer (Boehringer Mannheim Diagnostic Laboratory Systems).
Data are expressed as means±SEM. Statistical significance was determined according to the multiple-range test of Duncan-Kramer (Kramer 1956).

serum testosterone = experiment: Serum testosterone in male cynomolgus monkeys dosed orally; format: in vivo; settings: oral 2.5, 10 or 40 mg acolbifene/day, 13 weeks
Description: FIG. 13: Male cynomolgus monkeys were dosed orally with 2.5, 10 or 40 mg acolbifene/day for 13 weeks. Control monkeys received vehicle alone (0.4% methylcellulose). […] Results are expressed as the mean±SEM of 4 monkeys per group. P values (versus control) were calculated using a two-sided t test assuming equality of variances. FIG. 14: […] Control monkeys received vehicle alone (0.4% methylcellulose). […] P values (versus control) were calculated using a two-sided t test assuming equality of variances.

serum E2 levels = experiment: Serum E2 in a premenopausal person with advanced breast cancer on acolbifene; format: in vivo, human; settings: 20 mg daily oral, 6 months, from 222 before
uterine epithelial cells = experiment: Thickness of uterine (endometrial) epithelial cells in ovariectomized nude mice; settings: no estrone, 200 μg daily
[9] = system: human ZR-75-1 breast tumors; experiment: ZR-75-1 tumor growth in ovariectomized nude mice in absence of estrone (agonistic effects); settings: no estrone, 200 μg daily, 161 days, hydrochloride
[10] = system: human breast cancer MCF-7 cells; experiment: Proliferation of MCF-7 cells (DNA content); format: cell-based; settings: Experiment 2
Description: The MCF-7 human breast adenocarcinoma cell line was derived from the pleural effusion of a patient. MCF-7 cells were used between passages 148 and 165 and subcultured weekly.
Cells in their late logarithmic growth phase were harvested with 0.1% pancreatin (Sigma) and resuspended in the appropriate medium containing 50 ng bovine insulin/mL and 5% (v/v) FBS treated twice with dextran-coated charcoal to remove endogenous steroids. Cells were plated in 24-well Falcon plastic culture plates (2 Cm^2/well) at the indicated density and allowed to adhere to the surface of the plates for 72 h. Thereafter, medium was replaced with fresh medium containing the indicated concentrations of compounds diluted from 1000× stock solutions in 99% redistilled ethanol in the presence or absence of E2. Control cells received only the ethanolic vehicle (0.1% EtOH, v/v). Cells were incubated for the specified time intervals with medium changes at 2- or 3-day intervals. Cell number was determined by measurement of DNA content.
Dose-response curves as well IC50 values were calculated using a weighted iterative nonlinear least-squares regression. All results are expressed as means±SEM.

[11] = patients treated with testosterone; cited from earlier work
[12] = men with serum testosterone <3.0 ng/mL after coronography; control group 15.4%; cited from earlier work

Oc1ccc2c(c1)CC[C@H](c1ccccc1)[C@@H]2c1ccc(OCCN2CCCC2)cc1 (racemic) [lasofoxifene, (−)-cis-(5R,6S)-6-phenyl-5-[4-(2-pyrrolidin-1-ylethoxy)phenyl]-5,6,7,8-tetrahydronaphthalen-2-ol, D-(−)-tartrate salt]
CHOLESTEROL [1]: 0.60 ± 0.02 mmol/L

Oc1ccc2c(c1)CC[C@@H](c1ccccc1)[C@H]2c1ccc(OCCN2CCCC2)cc1 (single isomer, unassigned) [inactive enantiomer of lasofoxifene]
inhibitory effect on estrone-stimulated uterine weight [2]: no inhibitory effect
stimulatory effect on uterine weight (ovariectomized mice; daily oral 1 μg and 10 μg): no stimulatory effect
stimulatory effect on vaginal weight (ovariectomized mice; daily oral 1 μg and 10 μg): no stimulatory effect

CC1=C(c2ccc(OC(=O)C(C)(C)C)cc2)[C@H](c2ccc(OCCN3CCCCC3)cc2)Oc2cc(OC(=O)C(C)(C)C)ccc21 [14C-EM-800]
total drug-derived radioactivity in the brain, detection [3]: not detected after 12 hr post dose

C[C@]12CC[C@H](O)CC1=CC[C@@H]1[C@@H]2CC[C@]2(C)C(=O)CC[C@@H]12 [DHEA, dehydroepiandrosterone]
effect on serum cholesterol [4]: no effect
effect on serum triglycerides [4]: inhibitory effect
increase in trabecular bone number compared to ovariectomized controls (ovariectomized rats): 137%
reduction (inhibitory effect) of serum cholesterol (ovariectomized rats): 22%
trabecular bone number (ovariectomized rats): 1.27±0.1 per mm
trabecular bone volume of the tibia (ovariectomized rats): 11.9±0.6%
Alkaline phosphatase (ovariectomized rats; serum): 201±25 IU/L
CHOLESTEROL (ovariectomized rats; serum): 1.78 ± 0.16 mmol/L
Triglycerides (ovariectomized rats; serum): 0.8 ± 0.1 mmol/L
OH-proline/creatinine (ovariectomized rats; urine): 7.3±1.0 μmol/mmol
DISTAL FEMORAL METAPHYSIS (DFM) BMD [5]: 0.2934 ± 0.0046 g/cm^2
DISTAL FEMORAL METAPHYSIS (DFM) Prevention of Bone Loss [5]: 71%
LUMBAR SPINE (L2-L4) BMD [5]: 0.2144 ± 0.0028 g/cm^2
LUMBAR SPINE (L2-L4) Prevention of Bone Loss [5]: 44%
PROXIMAL TIBIAL METAPHYSIS (PFM) BMD [5]: 0.2672 ± 0.0041 g/cm^2
PROXIMAL TIBIAL METAPHYSIS (PFM) Prevention of Bone Loss [5]: 42%
decrease of responsiveness of serum insulin to the glucose tolerance test [6]: 13%
improvement in the insulin sensitivity index [6]: 34%
decrease of abdominal subcutaneous fat ([6]; both women and men): 6%
decrease of abdominal visceral fat ([6]; men 65 to 78 years): 7.4%
decrease of abdominal visceral fat ([6]; women 65 to 78 years): 10.2%
decrease of total body fat mass [7]: 1.4 kg
increase of fat-free mass [7]: 0.9 kg

CC1=C(c2ccc(O)cc2)[C@H](c2ccc(OCCN3CCCCC3)cc2)Oc2cc(O)ccc21.Cl [EM-652.HCl, (S)-(+)-7-hydroxy-3-(4′-hydroxyphenyl)-4-methyl-2-(4″-(2′″-piperidinoethoxy)phenyl)-2H-1-benzopyran hydrochloride]
ALP [8]: 91 ± 6 IU/L
CHOLESTEROL [8]: 0.87 ± 0.04 mmol/L
CHOLESTEROL [1]: 0.98 ± 0.06 mmol/L
serum testosterone levels (FIGS. 13 and 14) (serum testosterone): increased serum testosterone levels
serum E2 levels (serum E2 levels): 2030 pg/mL
height of uterine epithelial cells, % of the OVX control group value (uterine epithelial cells): 114%
effect of compound alone on ZR-75-1 tumor size compared to OVX control [9]: did not exert any stimulatory effect; also recorded: did not significantly change
effect of compound alone on ZR-75-1 tumor size compared to OVX control ([9]; listed as Acolbifene): no effect on tumor growth

Oc1ccc2c(c1)CC[C@H](c1ccccc1)[C@@H]2c1ccc(OCCN2CCCC2)cc1 [lasofoxifene (free base)]
stimulation of uterine weight (ovariectomized mice; 10 μg daily oral): 93%
stimulation of vaginal weight (ovariectomized mice; 10 μg daily oral): 73%
Stimulation of DNA by tested compounds [10]: N.S.

C[C@]12CC[C@H]3[C@@H](CCC4=CC(=O)CC[C@@]43C)[C@@H]1CC[C@@H]2O [testosterone]
decrease in mortality risk [11]: 39%
lower incidence of heart disease [11]: 20%
rate of deaths at 3 years [12]: 18.5%
